Test results as given in PMC10675732 (Viruses, 2023).
“And” between values parts separate entries of the source, which are not always exact repeats. Equal values may be shown once. Read-outs that look alike come from different tables or passages of the source. Marks after values point to notes of the source that are not given here.

Key:
[1] = test system: Parent virus (A/PR/8/34 (H1N1)); assay: microbe, parasite or virus in culture; type: cell-based; conditions: Influenza A virus, plaque reduction assay
B/Hong Kong/5/72 [2] = type: in vivo, influenza B virus
A/PR/8/34 (H1N1) [3] = type: in vivo, influenza A virus
[4] = human, in vivo, po; cited from earlier work
influenza A viruses = conditions: range over influenza A viruses, previous study; cited from earlier work
A/PR/8/34 (H1N1) [5] = conditions: viral yield; cited from earlier work
[6] = mouse, in vivo, po; cited from earlier work
in vivo = conditions: mouse, sc
[7] = test system: seasonal influenza A viruses; conditions: cited from earlier work
[8] = cited from earlier work
influenza B viruses = conditions: range over influenza B viruses, previous study; cited from earlier work
B/Hong Kong/5/72 [9] = conditions: viral yield; cited from earlier work

NC(=O)c1nc(F)c[nH]c1=O [Favipiravir]
EC50 [1]: 22300 ± 1010 nM

CCOC(=O)C1=C[C@@H](OC(CC)CC)[C@H](NC(C)=O)[C@@H](N)C1 [oseltamivir phosphate]
Body weight loss induced by infection (B/Hong Kong/5/72 [2]; in vivo): suppressed body weight loss | Mice survived (B/Hong Kong/5/72 [2]; n = 10): 70% | Body weight loss induced by infection (A/PR/8/34 (H1N1) [3]; in vivo): suppressed body weight loss | Virus titres in the lungs compared to the vehicle-treated group (A/PR/8/34 (H1N1) [3]; in vivo): significantly low | Mice survived (A/PR/8/34 (H1N1) [3]; n = 10): 100%

O=C1c2c(O)c(=O)ccn2N([C@@H]2c3ccccc3SCc3c2ccc(F)c3F)[C@@H]2COCCN12 [baloxavir acid]
Half-life of baloxavir acid in humans [4]: 49 to 91 h | EC50 [1]: 1.69 ± 0.57 nM | EC90 (influenza A viruses): 0.46 to 0.98 nM | EC90 (A/PR/8/34 (H1N1) [5]): 0.79 nM | Half-life of baloxavir acid in plasma [6]: 2.2 to 3.1 h | Body weight loss induced by infection (B/Hong Kong/5/72 [2]; in vivo): suppressed body weight loss | Mortality due to infection (B/Hong Kong/5/72 [2]; in vivo): completely eliminated mortality | Survival (B/Hong Kong/5/72 [2]; in vivo): all mice survived | Survival Rate (B/Hong Kong/5/72 [2]; in vivo): 50 * % and 100 ** % and 80 * % and 50% | Survival rate (B/Hong Kong/5/72 [2]; in vivo): ≤ 50% | Survival vs vehicle (B/Hong Kong/5/72 [2]; in vivo): significantly improved survival | Virus titres in the lungs compared to the oseltamivir phosphate group (B/Hong Kong/5/72 [2]; in vivo): significantly lower | Virus titres in the lungs compared to the vehicle-treated group (B/Hong Kong/5/72 [2]; in vivo, sc, 10 mg/kg): significantly low | half-life (in vivo; female, BALB/c, 3.2 mg/kg): 74.2 h | half-life (in vivo; female, BALB/c, 6.4 mg/kg): 84.2 h | half-life (in vivo; 10 mg/kg): 49.9 h | mean EC50 against seasonal influenza A viruses relative to influenza B viruses [7]: five to ten times lower | Plasma concentration ([8]; 10 mg/kg s.c. single dose, 2 h after dosing): 0.044 µg/mL | Plasma concentration ([8]; 10 mg/kg s.c. single dose, 4 h after dosing): 0.0472 µg/mL | Plasma concentration ([8]; 10 mg/kg s.c. single dose, 8 h after dosing): 0.0344 µg/mL | Plasma concentration ([8]; 10 mg/kg s.c. single dose, 48 h after dosing): 0.0178 µg/mL | Plasma concentration ([8]; 10 mg/kg s.c. single dose, 120 h after dosing): 0.00679 µg/mL | Plasma concentration ([8]; 10 mg/kg s.c. single dose, 168 h after dosing): 0.00651 µg/mL | Plasma concentration ([8]; 10 mg/kg s.c. single dose, 216 h after dosing): 0.00597 µg/mL | Plasma concentration ([8]; mouse, in vivo): 0.0261 µg/mL | EC90 (influenza B viruses): 2.2 to 6.5 nM | Body weight loss induced by infection (A/PR/8/34 (H1N1) [3]; in vivo): suppressed body weight loss | Mortality (A/PR/8/34 (H1N1) [3]; in vivo): complete elimination of mortality | Mortality due to infection (A/PR/8/34 (H1N1) [3]; in vivo): completely eliminated mortality | Survival (A/PR/8/34 (H1N1) [3]; in vivo): all mice survived | Survival Rate (A/PR/8/34 (H1N1) [3]; in vivo): 100 ** % | Virus titres in the lungs compared to the oseltamivir phosphate group (A/PR/8/34 (H1N1) [3]; in vivo): significantly lower | Virus titres in the lungs compared to the vehicle-treated group (A/PR/8/34 (H1N1) [3]; in vivo): significantly low | EC90 (B/Hong Kong/5/72 [9]): 2.2 nM
